Measured values: patent publication US9464064B2, “HCV helicase inhibitors and methods of use thereof” (University of Kansas, priority 2011, dated 2016)
Positions of bridges follow the written chain, without caps; N, C: chain ends. Non-standard residues stand in square brackets, D forms with d. Residues, ends and D or L forms follow the SMILES beside them. ξ: configuration not given here. *: point of attachment. ξNMePhe(4-NMe2) = CNC(Cc1ccc(N(C)C)cc1)C(=O)O; Picolinoyl(3-OH) = O=C(c1ncccc1O)*; ξPip(4-oxo) = O=C1CCNC(C(=O)O)C1; Phg = N[CH](C(=O)O)c1ccccc1; Abu = CC[CH](N)C(=O)O

Molecular target: T1, HCV NS3 helicase NS3h_1b(con1) (Hepatitis C virus genotype 1b, UniProt Q9WMX2)
T1 construct: truncated C-terminally His-tagged NS3 proteins lacking the N-terminal protease, called NS3h; His-tag (C); made in house
T1 sequence (Q9WMX2 1192-1657): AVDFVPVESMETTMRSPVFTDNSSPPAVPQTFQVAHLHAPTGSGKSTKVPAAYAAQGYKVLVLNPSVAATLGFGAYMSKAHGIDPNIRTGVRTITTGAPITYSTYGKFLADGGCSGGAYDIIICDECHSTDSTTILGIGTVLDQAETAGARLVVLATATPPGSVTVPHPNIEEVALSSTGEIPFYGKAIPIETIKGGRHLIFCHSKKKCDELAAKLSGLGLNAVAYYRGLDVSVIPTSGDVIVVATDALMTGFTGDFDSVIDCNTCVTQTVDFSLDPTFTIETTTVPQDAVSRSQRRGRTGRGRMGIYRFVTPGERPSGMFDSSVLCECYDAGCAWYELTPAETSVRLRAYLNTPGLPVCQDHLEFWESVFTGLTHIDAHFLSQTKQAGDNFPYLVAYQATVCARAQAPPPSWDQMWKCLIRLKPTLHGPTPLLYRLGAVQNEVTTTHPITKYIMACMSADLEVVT
Assay: MBHA screen of NCI mechanistic set library at 20 μM (percent inhibition, compound interference)
Type: biochemical
Conditions: compounds at 20 μM; for Inh. (%) (Inhibition): calculated from Equation 1
How it was run: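 Molecular beacon-based DNA unwinding assay; compounds screened at 20 μM in triplicate, with DMSO-only negative and 500 nM dT20 positive controls. Fluorescence (ex 643/em 670 nm) was read before and 30 min after adding ATP to 1 mM. Percent inhibition came from the change relative to DMSO controls; interference from pre-ATP fluorescence versus DMSO controls.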

[1] = MBHA with DNA substrate, assay interference calculated with Equation 2
[2] = assay interference calculated with Equation 2 (fluorescence vs DMSO-only controls before ATP)

SMILES | Int.* (Ratio) (Interference) [1] | Inh. (%) (Inhibition) (MBHA with DNA substrate) | Inh. (%) (Inhibition) (MBHA with a DNA substrate) | Int.* (Ratio) (Interference) [2]
CCCCCCCCCCNCCSSCc1ccc(Cl)cc1.Cl [Compound 624206] | 0.81 | 0.1 | – | –
CC1=C\C(O)CC(=O)Cc2nc(co2)C(=O)N2CCC=C2C(=O)OC(C(C)C)C(C)/C=C/C(=O)NC/C=C\1.CCC1NC(=O)C(NC(=O)c2ncccc2O)C(C)OC(=O)C(c2ccccc2)NC(=O)C2CC(=O)CCN2C(=O)C(Cc2ccc(N(C)C)cc2)N(C)C(=O)C2CCCN2C1=O (stereo not drawn) [Compound 125176] ({Picolinoyl(3-OH)}-T[Abu]P[ξNMePhe(4-NMe2)][ξPip(4-oxo)][Phg]; ester 1-C; configuration not given here) | – | – | −20.2 | 0.90
Cl.O=C1/C(=C\c2ccc(Cl)c(Cl)c2)CN(C(=O)CCN2CCOCC2)C/C1=C\c1ccc(Cl)c(Cl)c1 [Compound 638646] | – | – | −3.1 | 0.76
CC[C@@]1(O)C[C@H](O)c2c(O)c3c(c(O)c2[C@H]1C(=O)OC)C(=O)c1cccc(O)c1C3=O [Compound 196524] | 1.02 | 3.3 | – | –
N#Cc1cn([C@@H]2O[C@H](CO)[C@@H](O)[C@H]2O)c2ncnc(N)c12 [Compound 63701] | – | – | −3.8 | 0.98
CC(C)(C)NCCC(O)c1cc(C(F)(F)F)nc2c(C(F)(F)F)cccc12.O=P(O)(O)O (stereo not drawn) [Compound 305819] | 0.99 | 28.1 | – | –
O=NN(CCCl)C(=O)NCc1ccc[n+]([O-])c1 [Compound 307454] | – | – | −2.9 | 1.08
Cc1cc(Cl)ccc1N1C(=O)C(=O)C(c2nc3ccccc3o2)C(=O)C1=O [Compound 623051] | 0.92 | −10.9 | – | –
CCOC(=O)CCc1c(C)c2c(O)cc(O)cc2oc1=O [Compound 622616] | – | – | −6.5 | 0.95
Cc1ccc2[c](c1)[Sn]([c]1ccccc1)([c]1ccccc1)[c]1cc(C)ccc1N2C [Compound 118030] | 0.92 | −13.1 | – | –
Cc1ccc([N+](=O)[O-])cc1NC(=O)c1cccc([N+](=O)[O-])c1O [Compound 79451] | 0.98 | −11.9 | – | –
CCP(CC)CC.[Au+].[Cl-] [Compound 313981] | – | – | −3.8 | 0.93
CCOC(=O)Nc1nc2ccc(Cn3cccc3)cc2[nH]1 [Compound 639754] | 1.14 | −18.3 | – | –
COC(=O)[C@@]12OC[C@]34[C@H]([C@@H](O)[C@@H]1O)[C@@]1(C)CC(=O)C(O)=C(C)[C@@H]1C[C@H]3OC(=O)[C@H](OC(=O)/C=C(\C)C(C)C)[C@@H]24 [Compound 165563] | 0.95 | 14.6 | – | –
O=C(Nc1ccc(Sc2ccc(N=Nc3c(O)c(S(=O)(=O)O)cc4cc(S(=O)(=O)O)ccc34)cc2)cc1)c1ccc(N=Nc2c(O)ccc3c(S(=O)(=O)O)cc(S(=O)(=O)O)cc23)cc1 [Compound 76027] | – | – | −5.5 | 0.85
COc1ccccc1Cc1nc(-c2ccccc2)nn(C2OC(COC(C)=O)C(OC(C)=O)C(OC(C)=O)C2OC(C)=O)c1=S (stereo not drawn) [Compound 625873] | 1.02 | −16.6 | – | –
OCC1OC(n2cnc3c(SCc4ccccc4)ncnc32)C(O)C1O (stereo not drawn) [Compound 26273] | – | – | −6.4 | 0.89
CCOC(=O)c1sc2[n+](c1C)C(=O)/C(=C/c1ccc([N+](=O)[O-])cc1)S2.[Cl-] [Compound 658293] | – | – | −22.4 | 1.08
C[n+]1cc2cc(O)c(O)cc2c2ccc3cc(O)c(O)cc3c21.Cl.[Cl-].c1ccncc1 [Compound 184403] | 0.42 | 27.4 | – | –
CC[C@]1(O)C[C@H]2CN(CCc3c([nH]c4ccccc34)[C@@](C(=O)OC)(c3cc4c(cc3OC)N(C=O)[C@H]3[C@@](O)(C(=O)OC)[C@H](OC(C)=O)[C@]5(CC)C=CCN6CC[C@]43[C@@H]65)C2)C1 [Compound 67574] | 0.96 | −16.1 | – | –
N=N/C(=C\c1c(O)[nH]c2ccccc12)c1ccccc1 [Compound 175274] | – | – | 7.0 | 1.09
Cl.Nc1ccn([C@@H]2O[C@H](CO)[C@@H](O)[C@@H]2O)c(=O)n1 [Compound 63878] | – | – | 8.3 | 0.89
COC1C(O)=C2C(=O)OC(C)(O)/C=C/C=C\C=C/C=C/C(c3ccccc3)NC(=O)/C=C/C=C/C=C/C=C/C2(C)C1O (stereo not drawn) [Compound 236657] | – | – | −19.9 | 0.91
CC(/C=N/N=C(N)N)=N\N=C(N)N [Compound 32946] | 1.07 | −13.6 | – | –
